Laboratory results taken from article PMC9238401, “Peptide Conjugates Derived from flg15, Pep13, and PIP1 That Are Active against Plant-Pathogenic Bacteria and Trigger Plant Defense Responses” (Applied and Environmental Microbiology, 2022).
Non-standard residues stand in square brackets, D forms with d. Residues, ends and D or L forms follow the SMILES beside them. No end group written: not given here. *: point of attachment. Butyryl = CCCC(=O)*

Columns and labels:
[1] = test system: Xanthomonas axonopodis pv. vesicatoria 2133-2; details: TSB, 25°C, 48 h, OD 600 nm (Bioscreen C), three replicates, experiment repeated twice; MIC given as range
Text: The corresponding monomers (flg15, BP13, Pep13, PIP1, BP16, BP100, BP143, BP387, BP475, and KSL-W) were included for comparison.
(§1) The following plant-pathogenic bacterial strains were used: Erwinia amylovora PMV6076 (Institut National de la Recherche Agronomique, Angers, France), Pseudomonas syringae pv. syringae EPS94 (Institut de Tecnologia Agroalimentària, University of Girona, Spain), Xanthomonas axonopodis pv. vesicatoria 2133-2, X. axonopodis pv. vesicatoria Xav206 (Xav) (D. F. Ritchie, Department of Plant Pathology, North Carolina State University), Pseudomonas syringae pv. actinidiae Psa3700.1.1, Xanthomonas fragariae Xf349-9A (Instituto Valenciano de Investigaciones Agrarias, Valencia, Spain), and Xanthomonas arboricola pv. pruni CFBP5563 (Collection Française de Bactéries Associées aux Plantes, Angers, France). All bacteria except for X. fragariae were stored in Luria Bertani (LB) broth supplemented with glycerol (20%) and maintained at −80°C. For X. fragariae, medium B ([80]) was used instead of LB. E. amylovora, X. arboricola pv. pruni, P. syringae pv. syringae, and P. syringae pv. actinidiae were scraped from the agar medium after growing for 24 h at 25°C, and X. axonopodis pv. vesicatoria and X. fragariae, after growing for 48 h at 25°C. The cell material was suspended in sterile water to obtain a suspension of 10^8 CFU mL^−1.
(§2) Lyophilized peptides were solubilized in sterile Milli-Q water to a final concentration of 1 mM and filter-sterilized through a 0.22-μm pore filter. […] Then, 20 μL of each dilution were mixed in a microtiter plate well with 20 μL of the corresponding suspension of the bacterial indicator, 160 μL of Trypticase soy broth (TSB) (bioMérieux, France) to a total volume of 200 μL. Three replicates for each combination of strain, compound, and concentration were used. Microbial growth was determined by optical density measurement at 600 nm (Bioscreen C; Labsystem, Helsinki, Finland). Microplates were incubated at 25°C with 20 s of shaking before hourly absorbance measurement for 48 h. The experiment was repeated twice. The MIC was taken as the lowest compound concentration with no growth at the end of the experiment.

[2] = test system: Pseudomonas syringae pv. syringae EPS94; assay: In vitro growth inhibition (MIC); format: cell-based; details: TSB, 25°C, 48 h, OD 600 nm (Bioscreen C), three replicates, experiment repeated twice; MIC given as range
Description: (§3) Peptide conjugates were tested for in vitro growth inhibition of the plant-pathogenic bacteria E. amylovora PMV6076, Xanthomonas arboricola pv. pruni CFBP5563, X. fragariae Xf349-9A, X. axonopodis pv. vesicatoria 2133-2, P. syringae pv. actinidiae Psa3700.1.1, and P. syringae pv. syringae EPS94 (Fig. 1, Table SA). The corresponding monomers (flg15, BP13, Pep13, PIP1, BP16, BP100, BP143, BP387, BP475, and KSL-W) were included for comparison.
as §1, §2

[3] = test system: Erwinia amylovora PMV6076; assay: In vitro growth inhibition (MIC); format: cell-based; details: TSB, 25°C, 48 h, OD 600 nm (Bioscreen C), three replicates, experiment repeated twice; MIC = lowest concentration with no growth, given as range
Description: as §3, §1, §2

[4] = test system: Xanthomonas fragariae Xf349-9A; assay: In vitro growth inhibition (MIC); format: cell-based; details: TSB, 25°C, 48 h, OD 600 nm (Bioscreen C), three replicates, experiment repeated twice; MIC given as range
Description: as §3, §1, §2

[5] = test system: Pseudomonas syringae pv. actinidiae Psa3700.1.1; assay: In vitro growth inhibition (MIC); format: cell-based; details: TSB, 25°C, 48 h, OD 600 nm (Bioscreen C), three replicates, experiment repeated twice; MIC given as range
Description: as §3, §1, §2

[6] = test system: Xanthomonas arboricola pv. pruni CFBP5563; assay: In vitro growth inhibition (MIC); format: cell-based; details: TSB, 25°C, 48 h, OD 600 nm (Bioscreen C), three replicates, experiment repeated twice; MIC given as range
Description: as §3, §1, §2

horse erythrocytes = details: TRIS buffer pH 7.2, 1 h, 37°C, absorbance 540 nm, relative to melittin 100 μM, ± confidence interval (α = 0.05)
Description: The toxicity of peptide conjugates to eukaryotic cells was determined as the ability to lyse erythrocytes (Table SB).
The hemolytic activity of the compounds was evaluated by determining hemoglobin release from erythrocyte suspensions of horse blood (5% vol/vol) (Oxoid) as previously described ([45]). Blood was centrifuged at 6000g for 5 min, washed three times with TRIS buffer (10 mM TRIS, 150 mM NaCl, pH 7.2) and diluted 10 times. Compounds were solubilized in TRIS buffer at 750, 500, 300, and 100 μM and mixed with horse erythrocytes (1:1 vol/vol). The mixture was incubated with continuous shaking for 1 h at 37°C. Then, the tubes were centrifuged at 3500g for 10 min, 80-μL aliquots of the supernatant were transferred to 100-well microplates (Bioscreen) and diluted with 80 μL water, and the absorbance measured at 540 nm (Bioscreen). […] The percentage of hemolysis (H) was calculated using the equation H = 100 × ([Op − Ob]/[Om − Ob]), where Op is the density for a given compound concentration, Ob is that for the buffer, and Om is that for the melittin positive control.

tobacco leaves = assay: Effect of peptide infiltration on tobacco leaves (phytotoxicity); format: in vivo
Description: Peptide conjugates were also assayed for their toxicity in tobacco leaves (Fig. 3, Table SC). After 48 h of infiltration, melittin caused a necrotic area of 0.70 and 2.17 cm in diameter at 50 and 250 μM, respectively. The monomers were not phytotoxic at those concentrations; all of them led to lesions of ≤1.2 cm at 250 μM. All peptide conjugates were also less phytotoxic than melittin, causing necrotic lesions between 0.26 and 1.67 cm in diameter at 250 μM. In particular, 15 of the 30 conjugates led to a necrotic area of <1 cm at this concentration. In general, sequences incorporating BP13 were among the most phytotoxic.
Peptide conjugates were evaluated for their effect on infiltration on tobacco leaves as described previously ([41]). Peptide solutions of 50, 150, and 250 μM were infiltrated (100 μL) into the mesophylls of fully expanded tobacco leaves. Infiltrations were carried out in a single leaf, and for each peptide and dose, at least three leaves randomly distributed in different plants were inoculated. Control infiltrations with water (negative control) or melittin (positive control) at the same molar concentration were performed. The appearance of symptoms on the leaves was followed for 48 h after infiltration and measured as lesion diameter.

[7] = 100 μL infiltrated into mesophyll, lesion diameter 48 h after infiltration, at least three leaves, ± confidence interval (α = 0.05)

Compound	MIC, Xav [1]	MIC, Pss [2]	MIC, Ea [3]	MIC, Xf [4]	MIC, Psa [5]	MIC, Xap [6]	Percent hemolysis at 50 μM (horse erythrocytes)	Percent hemolysis at 150 μM (horse erythrocytes)	Percent hemolysis at 250 μM (horse erythrocytes)	Percent hemolysis at 375 μM (horse erythrocytes)	Size of the lesions in infiltrated tobacco leaves at 50 μM (tobacco leaves; [7])	Size of the lesions in infiltrated tobacco leaves at 150 μM (tobacco leaves; [7])	Size of the lesions in infiltrated tobacco leaves at 250 μM (tobacco leaves; [7])	Size of the lesions in infiltrated tobacco leaves at 50 μM (tobacco leaves; in vivo)	Size of the lesions in infiltrated tobacco leaves at 150 μM (tobacco leaves; in vivo)	Size of the lesions in infiltrated tobacco leaves at 250 μM (tobacco leaves; in vivo)
KKLFKKILKYL-FKLFKKILKVL-NH2 [BP100-BP13, peptide conjugate, BP100 at N-terminus, BP13 at C-terminus]	6.2 to 12.5 µM	> 50 µM	> 50 µM	6.2 to 12.5 µM	25 to 50 µM	12.5 to 25 µM	100 ± 9.4%	100 ± 5.5%	98 ± 3.3%	99 ± 3.7%	0.73 ± 0.20 cm	1.36 ± 0.23 cm	1.46 ± 0.06 cm			
VWNQPVRGFKVYE-OH [Pep13, pathogen-associated molecular pattern (PAMP) from Phytophthora sojae; plant defense elicitor monomer]	> 50 µM	> 50 µM	> 50 µM	> 50 µM	> 50 µM	> 50 µM	0 ± 0.6%	0 ± 0.3%	2 ± 0.1%	0 ± 0.1%				0 ± 0 cm	0 ± 0 cm	0 ± 0 cm
FKLFKKILKVL-KKLfKKILKYL-NH2 [BP13-BP143, peptide conjugate, BP13 at N-terminus, BP143 at C-terminus]	1.6 to 3.1 µM	> 50 µM	> 50 µM	12.5 to 25 µM	> 50 µM	6.2 to 12.5 µM	100 ± 0.6%	100 ± 3.7%	100 ± 3.2%	100 ± 10.6%	0.53 ± 0.18 cm	0.88 ± 0.15 cm	1.07 ± 0.37 cm			
FKLFKKILKVL-NH2 [BP13, reference compound]	50 to 100 µM	12.5 to 25 µM	25 to 50 µM	25 to 50 µM	3.1 to 6.2 µM	6.2 to 12.5 µM	5 ± 0.2%	13 ± 2%	27 ± 3%	42 ± 3%	0.20 ± 0.24 cm	0.48 ± 0.15 cm	0.96 ± 0.19 cm			
CCCC(=O)NCCCC[C@H](NC(=O)[C@H](CCCCN)NC(=O)[C@H](CC(C)C)NC(=O)[C@@H](NC(=O)[C@H](CCCCN)NC(=O)[C@H](CCCCN)NC(=O)[C@@H](Cc1ccccc1)NC(=O)[C@H](CC(C)C)NC(=O)[C@H](CCCCN)NC(=O)[C@H](CCCCN)NC(C)=O)[C@@H](C)CC)C(=O)N[C@@H](CC(C)C)C(N)=O [BP475, reference compound] (Ac-KKL[dF]KKILKK(Butyryl)L-NH2)	1.6 to 3.1 µM	3.1 to 6.2 µM	3.1 to 6.2 µM	1.6 to 3.1 µM	1.6 to 3.1 µM	0.8 to 1.6 µM	0 ± 0%	0 ± 0%	0 ± 0%	0 ± 0%	0.50 ± 0.10 cm	0.70 ± 0.20 cm	1.00 ± 0.10 cm			
KKLfKKILKYL-FKLFKKILKVL-NH2 [BP143-BP13, peptide conjugate, BP143 at N-terminus, BP13 at C-terminus]	6.2 to 12.5 µM	> 50 µM	> 50 µM	6.2 to 12.5 µM	25 to 50 µM	12.5 to 25 µM	100 ± 6.1%	100 ± 3.6%	100 ± 7.1%	100 ± 7.0%	0.18 ± 0.10 cm	0.40 ± 0.14 cm	1.14 ± 0.36 cm			
